This passage reports IC50 results from US8148367B2 (Takeda Pharmaceutical Company Limited, priority 2008, dated 2012).

This assay addresses T1, Recombinant human renin (Homo sapiens, UniProt P00797).
T1 construct: isolate the active form (residues 67-406); made in house; host or cells: FreeStyle 293-F cells, transient expression of pcDNA3.1(+)/hREN
T1 sequence (P00797 67-406): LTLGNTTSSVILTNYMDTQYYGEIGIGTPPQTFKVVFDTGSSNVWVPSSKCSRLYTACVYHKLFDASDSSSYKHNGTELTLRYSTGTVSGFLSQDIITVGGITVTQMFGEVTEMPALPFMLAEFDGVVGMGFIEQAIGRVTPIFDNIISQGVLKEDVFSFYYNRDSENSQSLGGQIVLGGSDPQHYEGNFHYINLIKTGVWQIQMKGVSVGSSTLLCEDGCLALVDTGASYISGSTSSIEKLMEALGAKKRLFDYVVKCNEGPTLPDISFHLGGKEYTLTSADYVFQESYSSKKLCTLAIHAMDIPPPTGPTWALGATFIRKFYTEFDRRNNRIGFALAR
Put plainly: In vitro enzymatic activity assay of renin inhibitors (fluorescence, QXL520/HiLyteFluo488 peptide substrate). Conditions: recombinant human renin 3 nM, 1 μM substrate, pre-incubated 10 minutes at 37° C., incubation one hour, pH 7.4, 5% DMSO; read-out: IC50 of Exemplified Compounds Against Renin. Format: biochemical.
Broadly, the IC50 is the concentration at which inhibition is half-maximal. As to `COCCOc1cccc(Cn2c(C(=O)N3CCNCC3)c(-c3ccccc3)n(-c3ccccc3C)c2=O)c1` [Example 186, 1-(3-(2-Methoxyethoxy)benzyl)-4-phenyl-5-(piperazine-1-carbonyl)-3-o-tolyl-1H-imidazol-2(3H)-one], the IC50 is 0.1 to 0.5 µM. The value for `COCCOc1cccc(Cn2c(C(=O)N3CCNCC3)c(-c3ccccc3)n(-c3ccccc3OC)c2=O)c1` [Example 187, 1-(3-(2-Methoxyethoxy)benzyl)-3-(2-methoxyphenyl)-4-phenyl-5-(piperazine-1-carbonyl)-1H-imidazol-2(3H)-one] was over 1 µM; that for `COc1ccccc1-n1c(-c2ccccc2)c(C(=O)N2CCNCC2)n(Cc2cccc(OCCOc3ccccc3)c2)c1=O` [Example 188, 1-(2-Methoxyphenyl)-3-(3-(2-phenoxyethoxy)benzyl)-5-phenyl-4-(piperazine-1-carbonyl)-1H-imidazol-2(3H)-one] was 0.1 to 0.5 µM; that for `O=C(c1c(-c2ccccc2)n(-c2cccc(N3CCOCC3)c2)c(=O)n1CC1CCCCC1)N1CCNCC1` [Example 189, 1-(Cyclohexylmethyl)-3-(3-morpholinophenyl)-4-phenyl-5-(piperazine-1-carbonyl)-1H-imidazol-2(3H)-one] was over 1 µM.

As for `O=C(c1c(-c2ccccc2)n(-c2cccc(N3CCOCC3)c2)c(=O)n1Cc1ccc(F)c(F)c1)N1CCNCC1` [Example 190, 1-(3,4-Difluorobenzyl)-3-(3-morpholinophenyl)-4-phenyl-5-(piperazine-1-carbonyl)-1H-imidazol-2(3H)-one], the IC50 lay in the range of 0.5 to 1 µM.

On to `O=C(c1c(-c2ccccc2)n(-c2cccc(N3CCOCC3)c2)c(=O)n1Cc1cccc(OCCOc2ccccc2)c1)N1CCNCC1` [Example 191, 1-(3-Morpholinophenyl)-3-(3-(2-phenoxyethoxy)benzyl)-5-phenyl-4-(piperazine-1-carbonyl)-1H-imidazol-2(3H)-one], for which the IC50 lay in the range of 0.1 to 0.5 µM. For `COCCCOc1cccc(-n2c(-c3ccccc3)c(C(=O)N3CCNCC3)n(Cc3cccc(OCCOC)c3)c2=O)c1` [Example 192, 1-(3-(2-Methoxyethoxy)benzyl)-3-(3-(3-methoxypropoxy)phenyl)-4-phenyl-5-(piperazine-1-carbonyl)-1H-imidazol-2(3H)-one], the IC50 was over 1 µM. The value for `O=C(c1c(-c2ccccc2)n(-c2cccc(N3CCOCC3)c2)c(=O)n1CCCNS(=O)(=O)c1ccccc1F)N1CCNCC1` [Example 193, 2-Fluoro-N-(3-(3-(3-morpholinophenyl)-2-oxo-4-phenyl-5-(piperazine-1-carbonyl)-2,3-dihydro-1H-imidazol-1-yl)propyl)benzenesulfonamide] was over 1 µM. The value for `O=C(c1c(-c2ccccc2)n(-c2cccc(N3CCOCC3)c2)c(=O)n1CCCNS(=O)(=O)c1ccccc1Cl)N1CCNCC1` [Example 194, 2-Chloro-N-(3-(3-(3-morpholinophenyl)-2-oxo-4-phenyl-5-(piperazine-1-carbonyl)-2,3-dihydro-1H-imidazol-1-yl)propyl)benzenesulfonamide] was under 0.1 µM. The value for `O=C(c1c(-c2ccccc2)n(-c2cccc(N3CCOCC3)c2)c(=O)n1CCCNS(=O)(=O)c1cccc(Cl)c1)N1CCNCC1` [Example 195, 3-Chloro-N-(3-(3-(3-morpholinophenyl)-2-oxo-4-phenyl-5-(piperazine-1-carbonyl)-2,3-dihydro-1H-imidazol-1-yl)propyl)benzenesulfonamide] was 0.5 to 1 µM; that for `CC(C)S(=O)(=O)NCCCn1c(C(=O)N2CCNCC2)c(-c2ccccc2)n(-c2cccc(N3CCOCC3)c2)c1=O` [Example 196, N-(3-(3-(3-Morpholinophenyl)-2-oxo-4-phenyl-5-(piperazine-1-carbonyl)-2,3-dihydro-1H-imidazol-1-yl)propyl)propane-2-sulfonamide] was over 1 µM. In the case of `Cc1ccccc1S(=O)(=O)NCCCn1c(C(=O)N2CCNCC2)c(-c2ccccc2)n(-c2cccc(N3CCOCC3)c2)c1=O` [Example 197, 2-Methyl-N-(3-(3-(3-morpholinophenyl)-2-oxo-4-phenyl-5-(piperazine-1-carbonyl)-2,3-dihydro-1H-imidazol-1-yl)propyl)benzenesulfonamide], the IC50 is over 1 µM.

In the case of `COc1cccc(S(=O)(=O)NCCCn2c(C(=O)N3CCNCC3)c(-c3ccccc3)n(-c3cccc(N4CCOCC4)c3)c2=O)c1` [Example 198, 3-Methoxy-N-(3-(3-(3-morpholinophenyl)-2-oxo-4-phenyl-5-(piperazine-1-carbonyl)-2,3-dihydro-1H-imidazol-1-yl)propyl)benzenesulfonamide], the IC50 lay in the range of 0.1 to 0.5 µM. The value for `COc1ccc(S(=O)(=O)NCCCn2c(C(=O)N3CCNCC3)c(-c3ccccc3)n(-c3cccc(N4CCOCC4)c3)c2=O)cc1` [Example 199, 4-Methoxy-N-(3-(3-(3-morpholinophenyl)-2-oxo-4-phenyl-5-(piperazine-1-carbonyl)-2,3-dihydro-1H-imidazol-1-yl)propyl)benzenesulfonamide] was 0.5 to 1 µM; that for `O=C(NCCCn1c(C(=O)N2CCNCC2)c(-c2ccccc2)n(-c2cccc(N3CCOCC3)c2)c1=O)Nc1ccccc1` [Example 200, 1-(3-(3-(3-Morpholinophenyl)-2-oxo-4-phenyl-5-(piperazine-1-carbonyl)-2,3-dihydro-1H-imidazol-1-yl)propyl)-3-phenylurea] was 0.5 to 1 µM; that for `O=C(c1c(-c2ccccc2)n(-c2cccc(N3CCOCC3)c2)c(=O)n1CCCNS(=O)(=O)c1ccc(Cl)cc1)N1CCNCC1` [Example 202, 4-Chloro-N-(3-(3-(3-morpholinophenyl)-2-oxo-4-phenyl-5-(piperazine-1-carbonyl)-2,3-dihydro-1H-imidazol-1-yl)propyl)benzenesulfonamide] was 0.5 to 1 µM. The value for `Cc1ccccc1-n1c(-c2ccccc2)c(C(=O)N2CCNCC2)n(CCNS(=O)(=O)c2ccccc2F)c1=O` [Example 203, 2-Fluoro-N-(2-(2-oxo-4-phenyl-5-(piperazine-1-carbonyl)-3-o-tolyl-2,3-dihydro-1H-imidazol-1-yl)ethyl)benzenesulfonamide] was 0.5 to 1 µM; that for `Cc1ccccc1-n1c(-c2ccccc2)c(C(=O)N2CCNCC2)n(CCNS(=O)(=O)c2ccccc2Cl)c1=O` [Example 204, 2-Chloro-N-(2-(2-oxo-4-phenyl-5-(piperazine-1-carbonyl)-3-o-tolyl-2,3-dihydro-1H-imidazol-1-yl)ethyl)benzenesulfonamide] was 0.5 to 1 µM; that for `Cc1ccccc1-n1c(-c2ccccc2)c(C(=O)N2CCNCC2)n(CCNS(=O)(=O)c2cccc(Cl)c2)c1=O` [Example 205, 3-Chloro-N-(2-(2-oxo-4-phenyl-5-(piperazine-1-carbonyl)-3-o-tolyl-2,3-dihydro-1H-imidazol-1-yl)ethyl)benzenesulfonamide] was over 1 µM. The value for `Cc1ccccc1-n1c(-c2ccccc2)c(C(=O)N2CCNCC2)n(CCNS(=O)(=O)C(C)C)c1=O` [Example 206, N-(2-(2-Oxo-4-phenyl-5-(piperazine-1-carbonyl)-3-o-tolyl-2,3-dihydro-1H-imidazol-1-yl)ethyl)propane-2-sulfonamide] was 0.5 to 1 µM; that for `Cc1ccccc1-n1c(-c2ccccc2)c(C(=O)N2CCNCC2)n(CCNS(=O)(=O)c2ccc(Cl)cc2)c1=O` [Example 207, 4-Chloro-N-(2-(2-oxo-4-phenyl-5-(piperazine-1-carbonyl)-3-o-tolyl-2,3-dihydro-1H-imidazol-1-yl)ethyl)benzenesulfonamide] was over 1 µM. With `Cc1ccccc1-n1c(-c2ccccc2)c(C(=O)N2CCNCC2)n(CCNS(=O)(=O)c2ccccc2C)c1=O` [Example 208, 2-Methyl-N-(2-(2-oxo-4-phenyl-5-(piperazine-1-carbonyl)-3-o-tolyl-2,3-dihydro-1H-imidazol-1-yl)ethyl)benzenesulfonamide], the half-maximal inhibitory concentration (IC50) lay within 0.5 to 1 µM. The value for `COc1cccc(S(=O)(=O)NCCn2c(C(=O)N3CCNCC3)c(-c3ccccc3)n(-c3ccccc3C)c2=O)c1` [Example 209, 3-Methoxy-N-(2-(2-oxo-4-phenyl-5-(piperazine-1-carbonyl)-3-o-tolyl-2,3-dihydro-1H-imidazol-1-yl)ethyl)benzenesulfonamide] was over 1 µM; that for `COc1ccc(S(=O)(=O)NCCn2c(C(=O)N3CCNCC3)c(-c3ccccc3)n(-c3ccccc3C)c2=O)cc1` [Example 210, 4-Methoxy-N-(2-(2-oxo-4-phenyl-5-(piperazine-1-carbonyl)-3-o-tolyl-2,3-dihydro-1H-imidazol-1-yl)ethyl)benzenesulfonamide] was over 1 µM. On to `Cc1ccccc1-n1c(-c2ccccc2)c(C(=O)N2CCNCC2)n(CCNC(=O)Nc2ccccc2)c1=O` [Example 211, 1-(2-(2-Oxo-4-phenyl-5-(piperazine-1-carbonyl)-3-o-tolyl-2,3-dihydro-1H-imidazol-1-yl)ethyl)-3-phenylurea], for which the IC50 was in the range of 0.1 to 0.5 µM.

In the case of `Cc1ccccc1-n1c(-c2ccccc2)c(C(=O)N2CCNCC2)n(CCNC(=O)Nc2ccccc2Cl)c1=O` [Example 212, 1-(2-Chlorophenyl)-3-(2-(2-oxo-4-phenyl-5-(piperazine-1-carbonyl)-3-o-tolyl-2,3-dihydro-1H-imidazol-1-yl)ethyl)urea], the IC50 was in the range of 0.5 to 1 µM.

On to `Cc1ccccc1-n1c(-c2ccccc2)c(C(=O)N2CCNCC2)n(CCNC(=O)Nc2ccc(Cl)cc2)c1=O` [Example 213, 1-(4-Chlorophenyl)-3-(2-(2-oxo-4-phenyl-5-(piperazine-1-carbonyl)-3-o-tolyl-2,3-dihydro-1H-imidazol-1-yl)ethyl)urea], for which the IC50 lay within 0.1 to 0.5 µM.
